Results from patent publication US9072707B2, “Use of C-terminal domain of IGFBP-5 comprising heparin-binding domain as an angiogenesis inhibitor” (RESEARCH & BUSINESS FOUNDATION SUNGKYUNKWAN UNIVERSITY, priority 2012, dated 2015).

B1: C-terminal domain: domain consisting of amino acids 169-252 of IGFBP-5 (SEQ ID NO: 1), stably expressed in 2774 cells (C/2774) (protein)
chain: QGPCRRHMEASLQELKASPRMVPRAVYLPNCDRKGFYKRKQCKPSRGRKRGICWCVDKYGMKLPGMEYVDGDFQCHTFDSSNVE

Tests used:
VEGF = assay: RT-PCR analysis of VEGF gene expression in 2774 ovarian cancer cell line; format: cell-based
Procedure: (§1) A plasmid (pSecTaq2/Hygro A, Invitrogen) (2 μg/dish (100 mm dish)) that expresses the C-terminal domain (SEQ ID NO: 1), L-domain (SEQ ID NO: 2) and N-terminal domain (SEQ ID NO: 3) of IGFBP-5 was transfected into the 2774 ovarian cancer cell line using Lipofectamine 2000 (Invitrogen). The transfection was performed according to the method provided by Invitrogen.
(§2) At 24 hours after transfection, viable colonies were collected in DMEM (+10% FBS+penicillin and hygromycin) containing hygromycin (500 μg/ml), and then positive colonies were selected by a Western blot method using Myc antibody.
(§3) The […] cell line was treated overnight with various concentrations or 60 μg/ml of the peptides synthesized in Example 4, after which the cell line was additionally treated with fresh peptides for 7 hours. The cell line was treated for a total of 24 hours. Then, the cells were lysed with Trizol (Invitrogen), and RNA was isolated from the cells. cDNA was synthesized from the isolated […] using oligo dT and superscriptase III (Invitrogen), and then subjected to RT-PCR.
(§4) However, the PCR reaction using TNF-a primers was performed for 35 cycles at an annealing temperature of 57° C.

IL-6 = assay: RT-PCR analysis of IL-6 gene expression in 2774 ovarian cancer cell line; format: cell-based
Procedure: as §1, §2, §3, §4

TNF-α = assay: RT-PCR analysis of TNF-alpha gene expression in 2774 ovarian cancer cell line; format: cell-based
Procedure: as §1, §2, §3, §4

HUVEC [1] = assay: Tube formation assay on Matrigel; format: cell-based, human; details: 60 μg/ml peptide, 24 h pretreatment, 6 h on Matrigel; FIG. 6a
Procedure: In order to examine the influence of each domain peptide of IGFBP-5 on the tube formation of HUVEC cells, HUVEC cells were plated onto a 6-well plate at a density of 1×10^5 cells/well, and then treated with 60 μg/ml of each of the peptides for 24 hours.
Before a tube formation assay, growth factor-reduced Matrigel (BD Bioscience) diluted to 1:2 with PBS was added to a 24-well plate in an amount of 300 μl/well, and then solidified at 37° C. for 1 hour. The HUVEC cells treated with each of the peptides for 24 hours were trypsinized, suspended in 300 μl of EGM medium (diluted to 1:3 with EBM medium) and treated with 60 μg/ml of a fresh peptide, and then the cells were incubated on the prepared Matrigel for 6 hours.

HUVEC [2] = assay: Migration (scratch) assay; format: cell-based, human; details: 60 μg/ml peptide, 36 h pretreatment, overnight, FIG. 6b
Procedure: In order to examine the influence of each domain peptide of IGFBP-5 on the migration of HUVEC cells, HUVEC cells were seeded onto a 12-well plate at a density of 1×10^5 cells/well, and then treated with 60 μg/ml of each of the peptides for 36 hours. Specifically, the cells were treated with each of the peptides for 7 hours, and then treated overnight with a fresh peptide.
The plate was scratched with a 200-μl micropipette tip, and treated overnight with 60 μg/ml of a fresh peptide, after which the migration of the cells was observed. For this purpose, the cells were photographed under a microscope at 0 hour and the overnight time point. In addition, for a control group, cells were treated with PBS.

2774-GFP cell line = assay: Ovarian cancer animal model, intraperitoneal 2774-GFP cells; format: in vivo, nude mouse; details: 30 mg/kg intraperitoneally 8 times at intervals of 2-3 days, FIG. 7
Procedure: Each of 5-week-old nude mouse was intraperitoneally injected with 5×10^6 2774 cells that express GFP.
In this experiment, 8 mice were injected with the BP5-C peptide, and for a control group, 7 mice were injected with PBS.

[3] = system: 2774 ovarian cancer cell line; assay: Subcutaneous tumor growth of 2774 cell lines expressing IGFBP-5 truncation mutants; format: in vivo, nude mouse; details: nude mice injected subcutaneously with 2774 cells expressing the domain, compared to Vec/2774; FIGS. 2a, 2b
Procedure: A 5-week-old nude mouse subcutaneously injected with 1×10^6 cells that express the truncation mutant of IGFBP-5, and then the tumor volume of the mice was measured at intervals of 3-4 days. In this experiment, two mice were used for each of the cell lines, and each of the cell lines was injected into two points of each mouse. This experiment was repeated three times.

[4] = 2774 cells treated with 60 μg/ml of each peptide, FIG. 5A
[5] = 2774 cells treated with peptide at 30, 60 and 100 μg/ml, FIG. 3A
[6] = 2774 cell line stably expressing the domain, FIG. 1B

| Molecule | expression of VEGF gene (VEGF; [4]) | expression of IL-6 gene (IL-6; [4]) | expression of TNF-α gene (TNF-α; [4]) | tube formation of HUVEC (HUVEC [1]) | migration of HUVEC (HUVEC [2]) | expression of VEGF gene (VEGF; [5]) | expression of IL-6 gene (IL-6; [5]) | expression of TNF-α gene (TNF-α; [5]) | tumor volume of collected tumors (2774-GFP cell line; compared to animals injected with PBS) | tumor growth (2774-GFP cell line; compared to control group (PBS)) | expression of VEGF gene (VEGF; [6]) | expression of IL-6 gene (IL-6; [6]) | expression of TNF-a gene (TNF-α; [6]) | growth of cancer (tumor volume) [3] |
| --- | --- | --- | --- | --- | --- | --- | --- | --- | --- | --- | --- | --- | --- | --- |
| BP2-HBD: heparin-binding domain derived from IGFBP-2, amino acids 171-188, KHHLGLEEPKKLRPPPAR (SEQ ID NO: 6) [reference compound] | no effect | no effect | no effect | no influence | did not inhibit | – | – | – | – | – | – | – | – | – |
| BP2-C: C-terminal domain peptide of IGFBP-2 including IGF-1-binding domain, amino acids 228-245, KHGLYNLKQCKMSLNGQR (SEQ ID NO: 7) [reference compound] | no effect | no effect | no effect | no influence | did not inhibit | – | – | – | – | – | – | – | – | – |
| BP5-mut: IGFBP-5 201-218 with G203A and Q209A mutations, RKAFYKRKACKPSRGRKR (SEQ ID NO: 5) | inhibited | inhibited | inhibited | inhibited | inhibited | – | – | – | – | – | – | – | – | – |
| BP5-C: amino acids 201-218 of IGFBP-5, RKGFYKRKQCKPSRGRKR (SEQ ID NO: 4) | inhibited | inhibited | inhibited | inhibited | inhibited | inhibited | inhibited | inhibited | significantly reduced | significantly inhibited | – | – | – | – |
| B1 | – | – | – | – | – | – | – | – | – | – | significantly inhibited | significantly inhibited | significantly inhibited | significantly inhibited |
